Test results: publication PMC11280325, “Design, Synthesis, and Characterization of Novel Thiazolidine-2,4-Dione-Acridine Hybrids as Antitumor Agents” (Molecules, 2024)
Structures can show the parent of a compound that is named as a salt.

Tests used:
[1] = system: PATU; experiment: MTT assay, PATU 8902; type: cell-based, human; conditions: pancreas adenocarcinoma, 48 h incubation
Protocol: (§1) The human cancer cell lines HeLa (cervical adenocarcinoma), HCT116 (colorectal adenocarcinoma), A2780 (human ovarian adenocarcinoma), A2780cis (human ovarian adenocarcinoma cisplatin-resistant), Jurkat (acute T-lymphoblastic leukemia), and Hep G2 (hepatocellular carcinoma) were cultured in an RPMI 1640 growth medium (Biosera, Kansas City, MO, USA). The cancer cell lines MDA-MB-231 (triple-negative breast adenocarcinoma), A2058 (human melanoma), U87 (human glioblastoma), PATU 8902 (pancreas adenocarcinoma), and A549 (human lung adenocarcinoma) were cultured in a DMEM medium (Biosera, Kansas City, MO, USA). The media were supplemented with 10% fetal bovine serum (FBS) (Invitrogen, Carlsbad, CA, USA) and 1× HyClone™ Antibiotic/Antimycotic Solution (GE Healthcare, Piscataway, NJ, USA).
(§2) To evaluate the IC50 (half-maximal inhibitory concentration) and confirm the antiproliferative activity of the tested substances, we employed the colorimetric MTT assay (3-(4,5-dimethylthiazol-2-yl)-2,5-diphenyltetrazolium bromide) (Sigma-Aldrich Chemie, Steinheim, Germany). The cell lines were seeded in 96-well plates at a density of 5 × 10^3 to 10 × 10^3 cells per well. After 24 h, the tested substances, dissolved in the cultivation medium, were added to the cells at final concentrations of 5, 10, 20, and 50 µmol/L. The cells were then incubated for 48 h under standard cultivation conditions. Following the incubation period, MTT was added to each well. The MTT was metabolized by the cells into insoluble formazan crystals, which were subsequently dissolved by adding 100 µL of 10% SDS. After another 24 h, the absorbance was measured at a wavelength of 540 nm using the automated Cytation™ 3 Cell Imaging Multi-Mode Reader (Biotek, Winooski, VT, USA). The experiments were performed in at least three independent repetitions. IC50 values were calculated using a nonlinear regression method.

[2] = system: A2780; experiment: MTT assay, A2780; type: cell-based, human; conditions: ovarian adenocarcinoma, 48 h incubation
Protocol: as §1, §2

[3] = system: Hep G2; experiment: MTT assay, Hep G2; type: cell-based, human; conditions: hepatocellular carcinoma, 48 h incubation
Protocol: as §1, §2

[4] = system: Bj-5ta; experiment: MTT assay, BJ-5ta non-cancerous fibroblasts; type: cell-based, human; conditions: non-cancerous dermal fibroblasts, 48 h incubation
Protocol: (§3) The non-cancerous cell line MCF-10A (human epithelial breast cells) was cultured in a DMEM F12 medium supplemented with 10% FBS (Invitrogen, Carlsbad, CA, USA), 1× HyClone™ Antibiotic/Antimycotic Solution (GE Healthcare, Piscataway, NJ, USA), insulin, hEGF, and hydrocortisone. The BJ-5ta cells (human dermal fibroblasts) were cultured in a DMEM-M199 4:1 medium mixture, supplemented with 10% FBS and hygromycin B (0.01 mg/mL). The cells were maintained under standard conditions with an atmosphere containing 5% CO2 at 37 °C. Cell viability, estimated by trypan blue exclusion, was consistently greater than 95% before each experiment.
as §2

[5] = system: A2058; experiment: MTT assay, A2058; type: cell-based; conditions: human melanoma, 48 h incubation
Protocol: as §1, §2

[6] = system: A549; experiment: MTT assay, A549; type: cell-based, human; conditions: lung adenocarcinoma, 48 h incubation
Protocol: as §1, §2

[7] = system: HeLa; experiment: MTT assay, HeLa; type: cell-based, human; conditions: cervical adenocarcinoma, 48 h incubation
Protocol: as §1, §2

[8] = system: HCT116; experiment: MTT assay, HCT116; type: cell-based, human; conditions: colorectal adenocarcinoma, 48 h incubation
Protocol: as §1, §2

[9] = system: MCF-10A; experiment: MTT assay, MCF-10A non-cancerous cells; type: cell-based, human; conditions: non-cancerous epithelial breast cells, 48 h incubation
Protocol: as §3, §2

SMILES | IC50 [2] [µM] | IC50 [6] [µM] | IC50 [7] [µM] | IC50 [8] [µM] | IC50 ([2]; Homo sapiens, A2780, 48 h) [µM] | melting point [°C] | IC50 ([7]; Homo sapiens, HeLa, 48 h) [µM] | IC50 ([6]; Homo sapiens, A549, 48 h) [µM] | IC50 ([8]; Homo sapiens, HCT-116, 48 h) [µM] | IC50 [1] [µM] | IC50 [3] [µM] | IC50 [4] [µM] | IC50 [5] [µM] | IC50 [9] [µM] | IC50 ([1]; Homo sapiens, PaTu 8902, 48 h) [µM] | IC50 ([3]; Homo sapiens, HepG2, 48 h) [µM] | IC50 ([4]; Homo sapiens, Fibroblast, 48 h) [µM] | IC50 ([5]; Homo sapiens, A2058, 48 h) [µM] | IC50 ([9]; Homo sapiens, MCF-10A, 48 h) [µM]
O=C(COc1ccc(/C=C2\SC(=O)N(Cc3c4ccccc4nc4ccccc34)C2=O)cc1)Nc1cc(C(F)(F)F)cc(C(F)(F)F)c1 [7g·2HCl, 2-(4-{[(5Z)-3-[(Acridin-9-yl)methyl]-2,4-dioxo-1,3-thiazolidin-5-ylidene]methyl}phenoxy)-N-[3,5-bis(trifluoromethyl)phenyl]acetamide dihydrochloride] | > 50 | 32.4 ± 7.6 | 19.3 ± 4.6 | > 50 |  |  |  |  |  | > 50 | > 50 | > 50 | > 50 | 13.2 ± 3.2 |  |  |  |  | 
COc1cc(NC(=O)COc2ccc(/C=C3\SC(=O)N(Cc4cccc5cc6ccccc6nc45)C3=O)cc2)cc(OC)c1 [8b·HCl, 2-(4-{[(5Z)-3-[(Acridin-4-yl)methyl]-2,4-dioxo-1,3-thiazolidin-5-ylidene]methyl}phenoxy)-N-(3,5-dimethoxyphenyl)acetamide hydrochloride] | > 50 | > 50 | 47.9 ± 1.4 | 32.4 ± 6.3 |  |  |  |  |  | > 50 | > 50 | > 50 | > 50 | > 50 |  |  |  |  | 
COc1cc(NC(=O)COc2ccc(/C=C3\SC(=O)N(Cc4c5ccccc5nc5ccccc45)C3=O)cc2OC)cc(OC)c1 [12b·2HCl, 2-(4-{[(5Z)-3-[(Acridin-9-yl)methyl]-2,4-dioxo-1,3-thiazolidin-5-ylidene]methyl}-2-methoxyphenoxy)-N-(3,5-dimethoxyphenyl)acetamide dihydrochloride] | 15 ± 1.4 | > 50 | 11.9 ± 7.4 | 27.3 ± 3.75 |  |  |  |  |  | > 50 | > 50 | 29.6 ± 4.4 | > 50 | 12.4 ± 1.9 |  |  |  |  | 
COc1cc(/C=C2\SC(=O)N(Cc3c4ccccc4nc4ccccc34)C2=O)ccc1OCC(=O)Nc1cc(OC)c(OC)c(OC)c1 [12c·2HCl, 2-(4-{[(5Z)-3-[(Acridin-9-yl)methyl]-2,4-dioxo-1,3-thiazolidin-5-ylidene]methyl}-2-methoxyphenoxy)-N-(3,4,5-trimethoxyphenyl)acetamide dihydrochloride] | > 50 | > 50 | 20.2 ± 5.4 | 5.4 ± 2.4 |  |  |  |  |  | > 50 | > 50 | > 50 | > 50 | > 50 |  |  |  |  | 
COc1cc(/C=C2\SC(=O)N(Cc3c4ccccc4nc4ccccc34)C2=O)ccc1OCC(=O)Nc1ccccc1C(F)(F)F [12e·2HCl, 2-(4-{[(5Z)-3-[(Acridin-9-yl)methyl]-2,4-dioxo-1,3-thiazolidin-5-ylidene]methyl}-2-methoxyphenoxy)-N-[2-(trifluoromethyl)phenyl]acetamide dihydrochloride] | > 50 | > 50 | 13.2 ± 4.9 | 29.2 ± 3.7 |  |  |  |  |  | > 50 | > 50 | > 50 | > 50 | > 50 |  |  |  |  | 
COc1cc(/C=C2\SC(=O)N(Cc3c4ccccc4nc4ccccc34)C2=O)ccc1OCC(=O)Nc1cccc(C(F)(F)F)c1 [12f·2HCl, 2-(4-{[(5Z)-3-[(Acridin-9-yl)methyl]-2,4-dioxo-1,3-thiazolidin-5-ylidene]methyl}-2-methoxyphenoxy)-N-[3-(trifluoromethyl)phenyl]acetamide dihydrochloride] | > 50 | > 50 | 19.4 ± 6.48 | 4.98 ± 2.9 |  |  |  |  |  | > 50 | > 50 | > 50 | > 50 | > 50 |  |  |  |  | 
COc1cc(/C=C2\SC(=O)N(Cc3c4ccccc4nc4ccccc34)C2=O)ccc1OCC(=O)Nc1cc(C(F)(F)F)cc(C(F)(F)F)c1 [12g·2HCl, 2-(4-{[(5Z)-3-[(Acridin-9-yl)methyl]-2,4-dioxo-1,3-thiazolidin-5-ylidene]methyl}-2-methoxyphenoxy)-N-[3,5-bis(trifluoromethyl)phenyl]acetamide dihydrochloride] | > 50 | > 50 | 25.1 ± 6.4 | 26.7 ± 9.01 |  |  |  |  |  | > 50 | > 50 | > 50 | > 50 | > 50 |  |  |  |  | 
COc1cc(/C=C2\SC(=O)N(Cc3c4ccccc4nc4ccccc34)C2=O)ccc1OCC(=O)Nc1ccccc1 [Compound 12a·2HCl, 2-(4-{[(5Z)-3-[(Acridin-9-yl)methyl]-2,4-dioxo-1,3-thiazolidin-5-ylidene]methyl}-2-methoxyphenoxy)-N-phenylacetamide dihydrochloride] | 15 ± 1.35 | > 50 | 18.2 ± 5.1 | 6.55 ± 1.65 |  |  |  |  |  | > 50 | > 50 | 35.5 ± 4.5 | > 50 | 19.3 ± 1.1 |  |  |  |  | 

Now from value to compound, other results behind:

IC50 [2] [µM] | IC50 [6] [µM] | IC50 [7] [µM] | IC50 [8] [µM] | IC50 ([2]; Homo sapiens, A2780, 48 h) [µM] | melting point [°C] | IC50 ([7]; Homo sapiens, HeLa, 48 h) [µM] | IC50 ([6]; Homo sapiens, A549, 48 h) [µM] | IC50 ([8]; Homo sapiens, HCT-116, 48 h) [µM] | SMILES | IC50 [1] [µM] | IC50 [3] [µM] | IC50 [4] [µM] | IC50 [5] [µM] | IC50 [9] [µM] | IC50 ([1]; Homo sapiens, PaTu 8902, 48 h) [µM] | IC50 ([3]; Homo sapiens, HepG2, 48 h) [µM] | IC50 ([4]; Homo sapiens, Fibroblast, 48 h) [µM] | IC50 ([5]; Homo sapiens, A2058, 48 h) [µM] | IC50 ([9]; Homo sapiens, MCF-10A, 48 h) [µM]
 | > 50 |  | 37.6 ± 4.2 | > 50 | 249 to 250 | 24.3 ± 3.8 |  |  | O=C(COc1ccc(/C=C2\SC(=O)N(Cc3c4ccccc4nc4ccccc34)C2=O)cc1)Nc1ccccc1 [Compound 7a, 2-(4-{[(5Z)-3-[(Acridin-9-yl)methyl]-2,4-dioxo-1,3-thiazolidin-5-ylidene]methyl}phenoxy)-N-phenylacetamide] |  |  |  |  | > 50 | > 50 | > 50 | > 50 | > 50 | 
 |  |  |  | > 50 | 280 to 282 | 11.3 ± 2.75 | 34.6 ± 5.4 | 34.5 ± 2.98 | COc1cc(NC(=O)COc2ccc(/C=C3\SC(=O)N(Cc4c5ccccc5nc5ccccc45)C3=O)cc2)cc(OC)c1 [Compound 7b, 2-(4-{[(5Z)-3-[(Acridin-9-yl)methyl]-2,4-dioxo-1,3-thiazolidin-5-ylidene]methyl}phenoxy)-N-(3,5-dimethoxyphenyl)acetamide] |  |  |  |  | 28.8 ± 2.3 | > 50 | > 50 | > 50 | > 50 | 
 |  | 6.8 ± 2.4 | > 50 | > 50 | 248 to 249 |  | > 50 |  | COc1cc(NC(=O)COc2ccc(/C=C3\SC(=O)N(Cc4c5ccccc5nc5ccccc45)C3=O)cc2)cc(OC)c1OC [Compound 7c, 2-(4-{[(5Z)-3-[(Acridin-9-yl)methyl]-2,4-dioxo-1,3-thiazolidin-5-ylidene]methyl}phenoxy)-N-(3,4,5-trimethoxyphenyl)acetamide] |  |  |  |  | 14.5 ± 2.5 | > 50 | > 50 | > 50 | > 50 | 
 |  | 20.1 ± 2.95 | > 50 | > 50 | 293 to 294 |  | > 50 |  | O=C(COc1ccc(/C=C2\SC(=O)N(Cc3c4ccccc4nc4ccccc34)C2=O)cc1)Nc1ccc([N+](=O)[O-])cc1 [Compound 7d, 2-(4-{[(5Z)-3-[(Acridin-9-yl)methyl]-2,4-dioxo-1,3-thiazolidin-5-ylidene]methyl}phenoxy)-N-(4-nitrophenyl)acetamide] |  |  |  |  |  | > 50 | > 50 | > 50 | > 50 | > 50
